Measurements as given in patent publication US20250250227A1, “AMINO LIPID COMPOUND, PREPARATION METHOD THEREFOR, COMPOSITION THEREOF AND USE THEREOF” (SHENZHEN SHENXIN BIOTECHNOLOGY CO., LTD., priority 2022, published 2025).

How the values were obtained:
Female BALB/c mice [1] = test: Performance evaluation of delivery to lymph nodes of Fluc mRNA lipid nanoparticle (IVIS); assay type: in vivo; conditions: Fluc mRNA LNP
Procedure: (§1) Animal preparation: Female BALB/c mice of 6-8 weeks old were selected and raised in an SPF grade breeding room. Animal testing was conducted in strict accordance with the guidelines of national health institutions and animal ethics requirements.
In vivo Delivery: prior to injection of the test LNP formulations, the LNP formulations were gently and repeatedly inverted to thoroughly mix the formulation samples. A corresponding amount of the formulation samples were aspirated with a 1 ml insulin syringe, and the LNP formulations were injected by tail vein injection (IV), with 3 mice per formulation. Each mouse was injected with 75 μL the luciferase mRNA (Fluc mRNA)-encapsulating lipid nanoparticle formulation prepared in Experimental Example 1.
6 hours after injection of LNP formulations, mice were injected with 200 μL D-Luciferin luciferase developing substrate (Catalog No. 122799; Manufacturer: Perkin Elmer). After the substrate was injected, the mice were anesthetized with isoflurane inhalation, and the injection time of luciferase developing substrate was recorded.
The intensity of fluorescence expression induced by the lipid nanoparticle encapsulating luciferase mRNA (Fluc mRNA) with a representative amino lipid compound is shown in Table 6, with SM-102 as a control.

Female BALB/c mice [2] = test: Humoral immunity test for total binding IgG antibody (ELISA, SARS-COV-2 antigen protein) in serum of immunized mice; assay type: in vivo; conditions: IN002.5.1 mRNA LNP, 50 μL IM, serum on 14th day after immunization; FIG. 5-6
Female BALB/c mice [3] = test: IFN-γ Elispot cellular immunity test, spleen lymphocytes of mice immunized with IN002.5.1 mRNA LNP; assay type: in vivo; conditions: 50 μL IM, spleen on 7th day after immunization, FIG. 2-4
Procedure: An IN002.5.1 mRNA-encapsulating lipid nanoparticle formulation was prepared according to the method as described in Experimental Example 1, with replacing the luciferase mRNA (Fluc mRNA) with IN002.5.1 mRNA, with a concentration of IN002.5.1 mRNA of 0.2 g/L, a mass ratio of IN002.5.1 mRNA to Lipid of 1:10, a particle size of 80-130 nm, and an encapsulation efficiency of 90% or higher.
The sequence of IN002.5.1 mRNA is one obtained by replacing all uracil (u) in SEQ ID NO. 1 with N1-methylpseudouridine. Of note is that the t (thymine) in the RNA sequence, SEQ ID NO. 1, in the Sequence Listing is actually u (uracil), according to the WIPO Standard ST. 26 for nucleotide or amino acid sequence listing.
as §1
Immunization of mice: Prior to injection of the test LNP formulations, the LNP formulations were gently and repeatedly inverted to thoroughly mix the formulation samples. A corresponding amount of the formulation samples were aspirated with a 1 ml insulin syringe, and the LNP formulations were injected by intramuscular injection (IM) […], with 8 mice per formulation. Each mouse was injected with 50 μL of the IN002.5.1 mRNA encapsulating lipid nanoparticle formulation.
Spleen acquisition: On the 7th day after immunization, 3 to 4 mice from each LNP immunization group were selected and euthanized, and their spleens were acquired in a super clean bench.
Isolation of lymphocytes: The spleens of mice were taken out in a super clean bench. 7 mL of mouse lymphocyte separation solution was added to a 6-well cell culture plate. Mouse spleen cells were ground with a syringe piston, and the suspension of the spleen cells was filtered through a cell screen and immediately transferred to a 15 mL centrifuge tube. […] RPMI 1640 medium was slowly added with keeping the liquid interface distinct. After centrifugation at 800 g with a horizontal rotor at room temperature for 30 minutes, a clear stratification can be visible. The lymphocyte layer was aspirated, then added with 10 mL RPMI 1640 medium, and inverted for washing. The cells were collected by centrifugation at 250 g for 10 min at room temperature, and the red blood cells were lysed. After completing lysis of red blood cells, the supernatant was poured, and the cells were resuspended in culture medium and counted.
Addition of stimulant and culture of lymphocyte: RPMI-1640 medium containing 10% fetal bovine serum was used to activate the pre-coated plate. After standing at room temperature for at least 30 min, the medium was removed, and a cell suspension at adjusted concentration was added ([…]). The medium used to resuspend the cells was used as a background negative control. 10 μL positive stimulant working solution (PMA+Ionomycin (dissolved in DPBS) was added to a positive control well; […] medium used to resuspend the cells was added to a negative control well; 10 µL/well of a peptide library diluted with RPMI 1640 was added to experimental wells. After all samples and the stimulant were added, the plate was covered, incubated in an incubator with 5% CO2 at 37° C. for 16-24 h.
Elispot detection after culture: The cells and the culture medium in the wells were dumped, and the wells were lysed with 200 μL/well of ice-cold deionized water at 4° C. for 10 min. The liquid in the wells were shaken out, and the wells were washed five times with PBS buffer. The wells were incubated with 100 μL/well of 1 μg/ml detection antibody for 2 h at room temperature; and after washing the plate 5 times with PBS, the wells were incubated with 100 μL/well of 1000-fold diluted enzyme labeled avidin (Streptavidin-HRP) for 1 h at room temperature. […]

Female BALB/c mice [4] = test: In vivo safety of hEPO mRNA lipid nanoparticle: serum alanine aminotransferase (ALT) enzyme activity; conditions: hEPO mRNA LNP, 300 μL IV, serum 12 h after injection; FIG. 1
Procedure: A human erythropoietin mRNA (hEPO mRNA)-encapsulating lipid nanoparticle formulation was prepared according to the method as described in Experimental Example 1, with replacing the luciferase mRNA (Fluc mRNA) with human erythropoietin mRNA (hEPO mRNA), with a concentration of hEPO mRNA of 0.2 g/L, a mass ratio of hEPO mRNA to Lipid of 1:10, a particle size of 90-130 nm, and an encapsulation efficiency of above 90% or higher.
as §1
In vivo Delivery: Prior to injection of the test LNP formulations, the LNP formulations were gently and repeatedly inverted to thoroughly mix the formulation samples. A corresponding amount of the formulation samples were aspirated with a 1 ml insulin syringe, and the LNP formulations were injected by tail vein injection (IV), with 5 mice per formulation. Each mouse was injected with 300 μL of the human erythropoietin mRNA (hEPO mRNA)-encapsulating lipid nanoparticle formulation.
Serum acquisition: Blood samples of mice were collected 12 h after injection, placed in tubes without anticoagulants, and naturally coagulated at room temperature for 30-60 min, and then centrifuged at a speed of 3500 rpm for 10 min to obtain the supernatant, which was the serum.
The detection of alanine transaminase was carried out according to instructions of the kit (Nanjing Jiancheng Bioengineering Institute, Catalog. No. C009-2-1), and a standard curve was made using the standard provided in the kit. D-PBS was used in the experiment, which was purchased from Sangon Biotech (Shanghai) Co., Ltd., Catalog No. E607009-0600.
The method of detection of enzyme activity of alanine aminotransferase (ALT) in serum of the mice is as follows:
• (1) Enzymatic reaction: 0, 2, 4, 6, 8 and 10 μL of […] sodium pyruvate standard solution were sequentially added to 5 μL of 0.1 mol/L phosphate buffer, and the volume was supplemented to 25 μL with a matrix solution, and repeatedly aspirating and spitting with a pipette for mixing well; • (2) Addition reaction: 20 μL 2,4-dinitrophenylhydrazine solution was added to all reaction wells in (1), mixed by aspirating and spitting, and then placed in an incubator at 37° C. to react for 20 min; • (3) Developing: 200 μL of 0.4 mol/L NaOH solution was added to all reaction wells in (2) to stop the reaction, mixed by aspirating and spitting, and incubated at room temperature for 15 min. The OD value of each well was measured at 510 nm in a microplate reader; and • (4) Data processing of standard curve: The corresponding absolute OD value for each well was obtained by subtracting the OD value for 0 μL well from the measured OD value for each well, the corresponding ALT Karmen units being 0, 28, 57, 97, 150 and 200 U/L, respectively. The standard curve was obtain by taking the absolute OD value as the abscissa and the corresponding Karmen unit as the ordinate.
• (1) Reagent preparation: an ALT matrix solution was placed in an incubator at 37° C. for preheating; • (2) Enzymatic reaction: 5 μL diluted serum was aspirated and added to a 96-well plate, then 20 μL matrix solution was added to the corresponding sample well and mixed by repeatedly aspirating and spitting to avoid bubbling, and then placed in an incubator at 37° C. for 30 min; • (3) Addition reaction: 20 μL 2,4-dinitrophenylhydrazine was added to all reaction wells in (2), mixed by aspirating and spitting, and then reacted in an incubator at 37° C. for 20 min; • (4) Developing: 200 μL of 0.4 mol/L NaOH solution was added to all reaction wells in (3) to stop the reaction, mixed by aspirating and spitting, and then incubated at room temperature for 15 min. […]

Female BALB/c mice [5] = test: Performance evaluation of in vivo delivery of Fluc mRNA lipid nanoparticle (IVIS, body and organs); conditions: Fluc mRNA LNP; for Liver (fluorescence expression intensity) / Spleen (fluorescence expression intensity): 75 μL IV; for Liver (fluorescence expression intensity) / Spleen (fluorescence expression intensity) / Total flux (fluorescence expression intensity) / (Spleen/Total Flux) * 100%: 6 hours after injection; for Liver (fluorescence expression intensity) / Spleen (fluorescence expression intensity) / Total flux (fluorescence expression intensity): IVIS; for Total flux (fluorescence expression intensity): 75 μL tail vein injection (IV); for (Spleen/Total Flux) * 100% / Multiple of spleen delivery/total delivery to amino lipid compound 118: IV; for Multiple of spleen delivery/total delivery to amino lipid compound 118: relative to amino lipid compound 118
How it was run: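 Female BALB/c mice, 6-8 weeks, received 75 μL Fluc mRNA-LNP by tail-vein injection, 3 mice per formulation. At 6 h, 200 μL D-luciferin was injected, mice were anesthetized with isoflurane, and IVIS bioluminescence was imaged in body and organs.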

[6] = Preparation and characterisation of mRNA-encapsulating lipid nanoparticle (encapsulation efficiency, particle size); assay type: physicochemical; conditions: LNP encapsulating Fluc mRNA; Lipid:DSPC:CHO-HP:M-DMG-2000 48:10:40.5:1.5
How it was run: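 Fluc mRNA in sodium acetate buffer mixed with ethanolic amino lipid:DSPC:CHO-HP:M-DMG-2000 (48:10:40.5:1.5 molar) by microfluidics, mRNA:lipid mass ratio 1:10, then dialysed 2 h against Tris-8% sucrose and 0.22 μm filtered. Final mRNA 0.2 g/L; particle size and encapsulation efficiency measured.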

Compound: CCCCCCC(CCCCCC)OC(=O)CCCCCCCCC(CCCCCCCCC(=O)OC(CCCCCC)CCCCCC)OC(=O)N(CCCCCC(=O)OCC)CCCN(C)C [Compound 250]
- Expression intensity (lymph nodes) (Female BALB/c mice [1]; 75 μL IV, 6 hours after injection, IVIS, lymph nodes): 1.77E+06
- Delivery effect on lymph nodes compared to SM102 (Female BALB/c mice [1]; IV, statement on Table 6): better delivery effect on lymph nodes

Compound: CCCCCCC(CCCCCC)OC(=O)CCCCCCCCC(CCCCCCCCC(=O)OC(CCCCCC)CCCCCC)OC(=O)N(CCCN(C)C)CCC(=O)OCCC [Compound 263]
- Humoral immunity effect (IgG titer) compared to ALC0315 (Female BALB/c mice [2]): better humoral immunity effect
- Cellular immunity effect (IFN-γ Elispot) compared to ALC0315 (Female BALB/c mice [3]): better cellular immunity effect
- ALT enzyme activity (Karmen unit) compared to ALC0315 and SM-102 (Female BALB/c mice [4]): significantly lower ALT enzyme activity

Compound: CCCCCCC(CCCCCC)OC(=O)CCCCCCCCC(CCCCCCCCC(=O)OC(CCCCCC)CCCCCC)OC(=O)N(CCCN(C)C)CCC(=O)OCCCCC [Compound 265]
- Liver (fluorescence expression intensity) (Female BALB/c mice [5]): 7.57E+07
- Spleen (fluorescence expression intensity) (Female BALB/c mice [5]): 1.91E+06
- Total flux (fluorescence expression intensity) (Female BALB/c mice [5]): 3.93E+08
- (Spleen/Total Flux) * 100% (Female BALB/c mice [5]): 0.49%
- Multiple of spleen delivery/total delivery to amino lipid compound 118 (Female BALB/c mice [5]): 1.43
- Humoral immunity effect (IgG titer) compared to ALC0315 (Female BALB/c mice [2]): better humoral immunity effect
- Cellular immunity effect (IFN-γ Elispot) compared to ALC0315 (Female BALB/c mice [3]): better cellular immunity effect
- Encapsulation efficiency [6]: 94.59%

Compound: CCCCCCOC(=O)CCN(CCCN(C)C)C(=O)OC(CCCCCCCCC(=O)OC(CCCCCC)CCCCCC)CCCCCCCCC(=O)OC(CCCCCC)CCCCCC [Compound 266]
- Liver (fluorescence expression intensity) (Female BALB/c mice [5]): 8.09E+07
- Spleen (fluorescence expression intensity) (Female BALB/c mice [5]): 1.60E+06
- Total flux (fluorescence expression intensity) (Female BALB/c mice [5]): 2.67E+08
- (Spleen/Total Flux) * 100% (Female BALB/c mice [5]): 0.60%
- Multiple of spleen delivery/total delivery to amino lipid compound 118 (Female BALB/c mice [5]): 1.76
- Humoral immunity effect (IgG titer) compared to ALC0315 (Female BALB/c mice [2]): better humoral immunity effect
- ALT enzyme activity (Karmen unit) compared to ALC0315 and SM-102 (Female BALB/c mice [4]): significantly lower ALT enzyme activity
- Encapsulation efficiency [6]: 94.26%

Compound: CCCCCCC(CCCCCC)OC(=O)CCCCCCCCC(CCCCCCCCC(=O)OC(CCCCCC)CCCCCC)OC(=O)N(CCCN(C)C)CC(=O)OCCCCC [Compound 271]
- Liver (fluorescence expression intensity) (Female BALB/c mice [5]): 7.57E+07
- Spleen (fluorescence expression intensity) (Female BALB/c mice [5]): 4.76E+06
- Total flux (fluorescence expression intensity) (Female BALB/c mice [5]): 2.68E+08
- (Spleen/Total Flux) * 100% (Female BALB/c mice [5]): 1.78%
- Multiple of spleen delivery/total delivery to amino lipid compound 118 (Female BALB/c mice [5]): 5.22
- Humoral immunity effect (IgG titer) compared to ALC0315 (Female BALB/c mice [2]): better humoral immunity effect
- Cellular immunity effect (IFN-γ Elispot) compared to ALC0315 (Female BALB/c mice [3]): better cellular immunity effect
- Encapsulation efficiency [6]: 93.59%

Compound: CCCCCCCCOC(=O)CN(CCCN(C)C)C(=O)OC(CCCCCCCCC(=O)OC(CCCCCC)CCCCCC)CCCCCCCCC(=O)OC(CCCCCC)CCCCCC [Compound 274]
- Liver (fluorescence expression intensity) (Female BALB/c mice [5]): 7.08E+07
- Spleen (fluorescence expression intensity) (Female BALB/c mice [5]): 2.60E+06
- Total flux (fluorescence expression intensity) (Female BALB/c mice [5]): 3.25E+08
- (Spleen/Total Flux) * 100% (Female BALB/c mice [5]): 0.80%
- Multiple of spleen delivery/total delivery to amino lipid compound 118 (Female BALB/c mice [5]): 2.35
- Humoral immunity effect (IgG titer) compared to ALC0315 (Female BALB/c mice [2]): better humoral immunity effect
- Cellular immunity effect (IFN-γ Elispot) compared to ALC0315 (Female BALB/c mice [3]): better cellular immunity effect
- Encapsulation efficiency [6]: 93.06%
